Holding throughout (format): cell-based
In test [1] the test system is NFkB driven firefly luciferase activity. The experiment in a line: A549-NFkB-firefly luciferase reporter assay (FireLITE). The note with it: A549-NFkB-firefly cells, stimulation with 0.5 ng/ml TNFα. How it is done: The firefly luciferase gene driven by a promoter containing five copies of the nuclear factor kB consensus sequence (GGGGACTTTCC) was derived from the pNF-kB-Luc plasmid, purchased from Stratagene, and subcloned into the pcDNA3 vector, deleted of the CMV promoter, in order to generate the construct p5NFkB-firefly-neo.
(§1) A549 cells were maintained in 5% CO2 at 37° C. in DMEM containing 10% foetal calf serum and 2 mM L-glutamine. Cells were stably transfected with p5NFkB-firefly-neo, p3GRE-renilla-neo or pAPI-firefly-neo using electroporation procedure. […] These cell lines were maintained in DMEM containing 10% foetal calf serum, 2 mM L-glutamine and 1 mg/ml G418.
(§2) Cells were plated into individual wells of a white 96-well viewplate at a cell density of 4×10^4/well in 100 μl of growth medium.
The individual cell clones were first characterised for responsiveness in isolation.

In test [2] the test system is GRE-mediated gene transcription. The experiment in a line: A549-GRE-Renilla luciferase reporter assay. The settings on record: A549-GRE-Renilla cells.
Excerpt: A synthetic GR responsive promoter consisting of three copies of the consensus glucocorticoid responsive element (GRE) (AGAACAnnnTGTACC) linked to a minimal herpes simplex thymidine kinase (HSV-TK) promoter was derived from the pGRE-SEAP plasmid purchased from Clontech. This was placed upstream of the Renilla luciferase reporter gene, contained in the pRLNull vector (Promega), to create the reporter construct p3GRE-renilla. The GRE containing promoter together with the renilla luciferase gene were then subcloned into the pcDNA3 vector, deleted of the CMV promoter, in order to generate the construct p3GRE-renilla-neo.
as §1, §2
This cell line will provide a means of measuring direct effects of glucocorticoid receptor agonists on GRE-mediated gene transcription.

In test [3] the test system is AP-1 driven firefly-luciferase activity. Briefly: A549-AP1-firefly luciferase reporter assay. The settings on record: A549-AP1-firefly cells, stimulation with 10 ng/ml EGF. As for the experimental part:
Similarly the minimal region of the Interleukin-2 promoter containing 4 AP-1 binding sites was cloned upstream of the firefly luciferase gene to generate pAP1-firefly-neo
as §1, §2
This cell line can therefore be used to monitor the repression of AP-1 signalling by glucocorticoid receptor ligands.

Turning to TNFα, the “increase in firefly luciferase activity” value in test [1] is 4.2 fold.

Regarding `C[C@@H]1C[C@H]2[C@@H]3CCC4=CC(=O)C=C[C@]4(C)[C@@]3(F)[C@@H](O)C[C@]2(C)[C@@]1(O)C(=O)CO` [dexamethasone], in test [2], the “maximal stimulation above basal of renilla luciferase activity” value was determined as 3 fold.

For “EGF: stimulatory factor used to activate AP-1 driven transcription”, the “increase in expression of firefly luciferase” value in test [3] stood at 2.4 fold.

The values are drawn from patent publication US20030091978A1, “Assay for glucocorticoid receptor signalling pathway” (priority 2000, published 2003).
